Data as given in patent publication US4530838A, “Synthetic calcitonin-gene-related peptides for lowering blood pressure or gastric acid secretion in mammals” (The Salk Institute for Biological Studies, priority 1983, dated 1985).

Experiments:
[1] = Blood pressure (MAP) lowering, general procedure of Example I, species not stated; type: in vivo; conditions: species and dose not stated
Description: (§1) The synthetic CGRP was examined for its effect on mean arterial blood pressure(MAP) gastric acid secretion and plasma catecholamine levels. The effects of CGRP on MAP, gastric secretion and plasma catecholamine levels were determined in unanesthetized rats and Beagle dogs. MAP was measured via direct arterial monitoring and gastric acids were collected from chronic gastric-abdominal wall cannula. […] Mean arterial blood pressure in rats fell from 106 to 57±2 mm Hg within about 1 minute following an injection of 6.5 nmoles CGRP and then slowly returned to control values during a period of more than one hour. The iv administration of an injection equal to 650 pmoles of CGRP lowered MAP to 73±3 mm Hg in about one minute, returning to control value in about 1 hour. IV and ICV administration of CGRP (10 pmoles) to rats and dogs lowers pentagastrin-induced acid secretion by more than 70% for several hours.
The peptide [Lys^35 ]-CGRP having the formula: [drawing 7] is synthesized.

Beagle dogs [2] = assay: Pentagastrin-induced gastric acid secretion, chronic gastric-abdominal wall cannula, dogs; type: in vivo; conditions: IV and ICV, 10 pmoles, for several hours
Description: as §1

[3] = Plasma catecholamine (norepinephrine) levels in unanesthetized animals; type: in vivo, rats and Beagle dogs; conditions: IV and ICV, 6.5 nmoles
Description: as §1

rats [4] = assay: Mean arterial blood pressure (MAP) by direct arterial monitoring in unanesthetized rats; type: in vivo
Description: as §1

rats [5] = assay: Pentagastrin-induced gastric acid secretion, chronic gastric-abdominal wall cannula, rats; type: in vivo; conditions: IV and ICV, 10 pmoles, for several hours
Description: as §1

Beagle dogs [6] = assay: Mean arterial blood pressure (MAP) by direct arterial monitoring in unanesthetized Beagle dogs; type: in vivo
Description: as §1

[7] = iv, degree and duration dose-related

| SMILES | Effect on blood pressure / MAP [1] | Lowering of pentagastrin-induced acid secretion (Beagle dogs [2]) | Norepinephrine in plasma [3] | Rapid decrease in MAP evoked, intercerebroventricular (icv) administration (rats [4]; icv) | Period of return of MAP to control values (rats [4]; injection of 6.5 nmoles) | Mean arterial blood pressure after injection (rats [4]; injection of 6.5 nmoles, fell from 106 within about 1 minute) [mm Hg] | Time of return of MAP to control value (rats [4]; iv injection of 650 pmoles) | Mean arterial blood pressure after injection (rats [4]; iv injection of 650 pmoles, in about one minute) [mm Hg] | Effect on MAP, intravenous (iv) administration (rats [4]; [7]) | Lowering of pentagastrin-induced acid secretion (rats [5]) | Rapid decrease in MAP evoked, intercerebroventricular (icv) administration (Beagle dogs [6]; icv) | Effect on MAP, intravenous (iv) administration (Beagle dogs [6]; [7]) |
| --- | --- | --- | --- | --- | --- | --- | --- | --- | --- | --- | --- | --- |
| CC(C)C[C@H](NC(=O)CNC(=O)[C@H](C)NC(=O)[C@H](CC(C)C)NC(=O)[C@H](CCCNC(=N)N)NC(=O)[C@H](Cc1c[nH]cn1)NC(=O)[C@@H](NC(=O)[C@@H](NC(=O)[C@@H]1CSSC[C@H](NC(=O)[C@@H](N)CO)C(=O)N[C@@H](CC(N)=O)C(=O)N[C@@H]([C@@H](C)O)C(=O)N[C@@H](C)C(=O)N[C@@H]([C@@H](C)O)C(=O)N1)C(C)C)[C@@H](C)O)C(=O)N[C@@H](CC(C)C)C(=O)N[C@@H](CO)C(=O)N[C@@H](CCCNC(=N)N)C(=O)N[C@@H](CO)C(=O)NCC(=O)NCC(=O)N[C@H](C(=O)N[C@H](C(=O)N[C@@H](CCCCN)C(=O)N[C@@H](CC(=O)O)C(=O)N[C@@H](CC(N)=O)C(=O)N[C@@H](Cc1ccccc1)C(=O)N[C@H](C(=O)N1CCC[C@H]1C(=O)N[C@H](C(=O)N[C@@H](CC(N)=O)C(=O)N[C@H](C(=O)NCC(=O)N[C@@H](CO)C(=O)N[C@@H](CCCCN)C(=O)N[C@@H](C)C(=O)N[C@@H](Cc1ccccc1)C(N)=O)C(C)C)[C@@H](C)O)C(C)C)C(C)C)C(C)C [[Lys^35]-CGRP] | very significant lowering of MAP | – | – | – | – | – | – | – | – | – | – | – |
| CC(C)C[C@H](NC(=O)CNC(=O)[C@H](C)NC(=O)[C@H](CC(C)C)NC(=O)[C@H](CCCNC(=N)N)NC(=O)[C@H](Cc1c[nH]cn1)NC(=O)[C@@H](NC(=O)[C@@H](NC(=O)[C@@H]1CSSC[C@H](NC(=O)[C@@H](N)CO)C(=O)N[C@@H](CC(N)=O)C(=O)N[C@@H]([C@@H](C)O)C(=O)N[C@@H](C)C(=O)N[C@@H]([C@@H](C)O)C(=O)N1)C(C)C)[C@@H](C)O)C(=O)N[C@@H](CC(C)C)C(=O)N[C@@H](CO)C(=O)N[C@@H](CCCNC(=N)N)C(=O)N[C@@H](CO)C(=O)NCC(=O)NCC(=O)N[C@H](C(=O)N[C@H](C(=O)N[C@@H](CCCCN)C(=O)N[C@@H](CC(=O)O)C(=O)N[C@@H](CC(N)=O)C(=O)N[C@@H](Cc1ccccc1)C(=O)N[C@H](C(=O)N1CCC[C@H]1C(=O)N[C@H](C(=O)N[C@@H](CC(N)=O)C(=O)N[C@H](C(=O)NCC(=O)N[C@@H](CO)C(=O)N[C@@H](CCC(=O)O)C(=O)N[C@@H](C)C(=O)N[C@@H](Cc1ccccc1)C(N)=O)C(C)C)[C@@H](C)O)C(C)C)C(C)C)C(C)C [CGRP] | substantially lower blood pressure for an extended time period | more than 70% | significant elevation | not | more than one | 57±2 | about 1 hour | 73±3 | rapid decrease in MAP | more than 70% | not | rapid decrease in MAP |
